Patent US10479814B2, “Adenosine receptor activation reagent and the uses of thereof” (Zhejiang Subtropical Crops Research Institute, priority 2014, dated 2019)
Entries after “also recorded” stand apart in the source; their conditions may differ.

Assays:
[1] = tested on: rat middle cerebral artery distal obstruction cerebral ischemia model; test: dMCAO cerebral ischemia: brain histomorphological staining HE; type: in vivo
Procedure: Using rat middle cerebral artery distal obstruction cerebral ischemia model. (1) according to rat weight, 10% chloral hydrate (3 ml/kg) was peritoneally injected to anaesthetize. (2) the rat lie on right side and fixed, 1 cm skin incision was cut at connection of inner canthus with external canal, fascia was isolated, muscle tissue, the skull was exposed; (3) a small amount of normal saline was sucked with cotton ball to wipe the skull to ac clear view; (4) fascia was isolated under operating microscope, and the skull was exposed, a hole with diameter of 2 mm circular was drilled at a sute 1/3 of spine; (5) the excess bone debris was washed by a small amount of normal saline, the meninge was push aside, and the middle cerebral artery MCA was exposed; (6) the rat lie in supine position and fixed, an incision was made along middle of throat, and arteria carotis communis CCA on both sides were isolate, pass through with a surgical suture, not ligated temporarily; (7) the MCA was found under operating microscope, burned by a monopolar coagulator, then wash and colled with normal saline; (8) immediately after coagulation, the arteria carotis communis on both sides was ligated, and blocked for 60 min; (9) the wound on head was stitched, after 1 hour the arteria carotis communis on both sides was […], and the skin was stitched, thus the modeling was complete. […]

[2] = tested on: mouse kidney ischemia reperfusion; test: kidney ischemia reperfusion: kidney function test (Scr, BUN); type: in vivo; conditions: for serum BUN level / serum Scr level: 24 h after ischemia reperfusion, vs IR group, ip pretreatment, HEA 5, 7.5, 10 mg/kg, DPCPX 1 mg/kg, DPCPX 1 mg/kg+HEA 7.5 mg/kg
Procedure: (§1) Male C57BL/6 mice 20-25 g, after one week of adaptive feeding to the animals, were randomly divided into eight groups: sham-operation group, IR group, HEA 5 mg/kg group, HEA 7 mg/kg group, HEA 10 mg/kg group, DPCPX (1 mg/kg) group, DPCPX (1 mg/kg)+HEA (5 mg/kg) group and DPCPX (1 mg/kg)+HEA (7.5 mg/kg) group. The mouse was weighed before operation, then peritoneally injected with pentobarbital sodium 50 mg/kg to anaesthetize the mouse, abdomen was opened by ventromedial incision, blunt dissection and the kidney pedicle was sufficiently exposed, renal ischemia was induced by clapping two side kidney pedicle with non-invasive bulldog clamp, the color of kidney change from bright red to purple black immediately, determination method of success of the experiment model can refer to the methods in literature 7 and 8. At time of 30 min of ischemia the bulldog clamp was loosened, the perfuse was restored, the color of kidney changed gradually from dark red to bright red, showing re perfusion was successful. The wound was stitched. The animals were freely fed water and food. In the sham-operation group, the mice only received operation of abdomen open, kidney pedicle and abdomen suture. The kidney IR mode were made for the mice in the remaining groups. In each drug group, before 15 minute of ischemia, the drug with corresponding concentration was speritoneally injected, in drug combination group, 15 minutes before ischemia, the drugs were given simultaneously. At 24 hours after Reperfussion, the mouse was again anaesthetized, obtaining the venous blood. Using full-automatic biochemical analysis systems (Dimension Xpand plus, from Siemens AG), the Scr (serum creatinine) and BUN (blood urea nitrogen) levels were detected respectively by chrysolepic acid rate method and enzymatic rate.

[3] = tested on: pain writhing response induced by 0.7% acetic acid; test: acetic acid writhing method (analgesia); type: in vivo, mouse; conditions: for effect of A1 antagonist on analgesic effect of the HEA: DPCPX 1 mg/kg ip 10 minutes before HEA 15 mg/kg
Procedure: Clean male Kunming mice, weight 18-22 g, selecting adenosine AiR antagonist DPCPX. The mice were divided into solvent group, HEA (15 mg/kg) group, DPCPX (1 mg/kg) and DPCPX+HEA (1 mg/kg+15 mg/kg) group; wherein in DPCPX+HEA group, the mouse was peritoneally injected with antagonist, after 10 minutes, the HEA was peritonealy injected. Using writhing method, the treatment dose was given, after 30-40 minutes, 0.7% acetic acid was peritoneally injected, and writhing number of the white mouse within 15 minutes was recorded, calculating the reduction number of pain writhing response induced by 0.7% acetic acid by the HEA.

[4] = tested on: mouse sleep induced by pentobarbital sodium; test: sleep induced by threshold dose of pentobarbital sodium; type: in vivo
Procedure: Male ICR mice were randomly divided into four groups, respectively control group, positivediazepam (1 mg/kg) group, HEA (25 mg/kg) group and DPCPX+HEA (2 mg/kg+25 mg/kg) group. […]
Regarding the mouse righting reflex disappear for 1 min within 15 min as the hypnagogic criterion, sleep latency and sleep duration were recorded for the mice in each group.

[5] = tested on: mouse kidney ischemia reperfusion; test: kidney ischemia reperfusion: electron microscope observation of renal tubular epithelial cells; type: in vivo
Procedure: as §1, with “The section” for “At 24 hours after Reperfussion, the mouse”, “observed using Transmission Electron Microscope ([…],” for “again anaesthetized, obtaining the venous blood. Using full-automatic biochemical analysis systems (Dimension Xpand plus,”, “Hitachi Co. limited). The observation was conducted in Electron Microscoper Room of Wenzhou Medical University.” for “Siemens AG), the Scr (serum creatinine) and BUN (blood urea nitrogen) levels were detected respectively by chrysolepic acid rate method and enzymatic rate.”

| Structure (SMILES) | effect of DPCPX on brain protective effect of HEA (HE staining) ([1]; DPCPX 1 mg/kg ip + HEA 7.5 mg/kg ip) | serum BUN level [2] | serum Scr level [2] | effect of A1 antagonist on analgesic effect of the HEA [3] | effect of A1 antagonist on analgesic effect of the HEA ([3]; listed as adenosine A1 receptor antagonist) | effect of adenosine receptor antagonist on hypnosis effect of the HEA ([4]; DPCPX+HEA 2 mg/kg+25 mg/kg) | renal tubular epithelial cell ultrastructure (electron microscope) ([5]; DPCPX 1 mg/kg alone or DPCPX 1 mg/kg+HEA 5 or 7.5 mg/kg before ischemia) | brain histomorphology (HE staining) ([1]; dMCAO rat, HEA 7.5 mg/kg ip, vs model group) | protective effect to mouse kidney ischemia reperfusion impairment ([2]; by serum Scr and BUN level and kidney histopathological change) | writhing number ([3]; HEA 15 mg/kg ip, 0.7% acetic acid, within 15 minutes, vs solvent group) | sleep time induced by threshold dose of pentobarbital sodium ([4]; HEA 25 mg/kg, sc, pentobarbital sodium 50 mg/kg) | sleep latency ([4]; HEA 25 mg/kg, sc, pentobarbital sodium 50 mg/kg, vs control group) | renal tubular epithelial cell ultrastructure (electron microscope) ([5]; HEA 5 mg/kg group) | renal tubular epithelial cell ultrastructure (electron microscope) ([5]; HEA 7.5 mg/kg group) | renal tubular epithelial cell ultrastructure (electron microscope) ([5]; HEA 10 mg/kg group) |
| --- | --- | --- | --- | --- | --- | --- | --- | --- | --- | --- | --- | --- | --- | --- | --- |
| CCCn1c(=O)c2[nH]c(C3CCCC3)nc2n(CCC)c1=O [DPCPX, reference compound] | blocking the brain protective effect of the HAE | significantly increase | significantly increase | analgesic effect of the HEA is significantly antagonized | analgesic effect was reduced | hypnosis effect of the HEA is significantly inhibited | essentially no mitochondria with complete structure | – | – | – | – | – | – | – | – |
| OCCNc1ncnc2c1ncn2[C@@H]1O[C@H](CO)[C@@H](O)[C@H]1O [HEA, N(6)-(2-hydroxyethyl)-adenosine] | – | significantly reduce | significantly reduce | – | – | – | – | reduce the cerebral cortex tissue structure loosening caused by ischemia; also recorded: improve cell swelling degree and nuclear aberration, and increases cell number | has protective effect to mouse kidney ischemia reperfusion impairment | significantly reduced the writhing number; also recorded: significantly reduce writhing number | extended sleep time of the mice induced by threshold dose of pentobarbital sodium to a certain degree; also recorded: extends mouse sleep time induced by threshold dose of pentobarbital sodium to a certain degree | no statistical difference in sleep latency; also recorded: no significant effect on sleep latency | the entirety is improved compared with ischemia reperfusion group | most of the mitochondria are normal | mitochondria protection is more clear than the IR group |
